According to patent US7655429B2, “Immunoassays for topiramate” (Seradyn, Inc., priority 2004, dated 2010):

Experiments:
[1] = cited from earlier work
[2] = system: sheep polyclonal antibodies that bind with topiramate prepared from immunogen (18); experiment: QMS homogeneous particle-enhanced immunoturbidimetric assay; format: binding; conditions: Topiramate antigen (19) coated Latex, Polyclonal antibody R1
Description: An immunoturbidimetric or QMS® assay, which is a homogeneous particle-enhanced immunoturbidimetric experiment, is performed to test the polyclonal antibodies prepared as in Example 21. […] The assay procedure is initiated by diluting the specimen because the specimens with topiramate can be used to generate results that exceed the highest calibrator value. As such, the specimens may be diluted manually or by using an automated onboard dilution protocol. The assay is based on competition for topiramate-specific antibody binding sites between drug in the sample and drug coated onto a microparticle of topiramate-coated microparticle reagent is rapidly agglutinated in the presence of the anti-topiramate antibody reagent and in the absence of any competing drug of the sample. The rate of absorbance change is measured photometrically, and is directly proportional to the rate of agglutination of the particles. […] A concentration-dependent classic agglutination inhibition curve can be obtained, with maximum rate of agglutination at the lowest topiramate concentration (at zero μg/ml) and the lowest agglutination rate at the highest topiramate concentration (32 μg/ml). The QMS® topiramate assay is initiated after the being calibrated using a full calibration (6-point) procedure. The QMS® is performed as directed in operation manuals in accordance with the average skill of one in the art.

[3] = system: anti-topiramate antibodies prepared with immunogen (18); experiment: ELISA binding inhibition study (avidity), free topiramate versus coated antigen; parameters: species or system Rabbit; Abs: unit not given here
Description: ELISA plates for use in an ELISA assay are prepared in order to study the polyclonal antibody prepared as described in Example 21. As such, various topiramate antigens (16), (19), and (20) are coated on different ELISA plates before being subjected to the anti-topiramate antibody and competing free topiramate. More particularly, the topiramate antigens are diluted in coating buffer, and then added to the wells of ELISA plate. After the ELISA plate is incubated for 60 min at 37° C., the solvent in the coating buffer is decanted and a blocking buffer is added to the plate. The plate is incubated again for 60 min at 37° C., and the solvent in the blocking buffer is decanted from the plate. The ELISA plate is then stored with the blocking agent in the wells at 2-8° C. for up to 1 week. The avidity of the anti-topiramate antibodies prepared with immunogen (17) for topiramate analogs are determined by a binding inhibition study. As such, samples are prepared in 1 mL of PBS at pH 7.4 with 0.1% BSA. A composition having 30% Bmax titer or 50% Bmax titer is used to divide the obtained titer value into approximately half the titer value. Using 30% Bmax, an antibody titer of 1:10,000 is diluted to 1:5,000 during the sample preparation stage. About 50 μL of topiramate at different concentrations or calibrator values, (0, 2, 4, 8, 16, 32 μg/ml) are then applied to a plate as prepared in accordance with Example 22. About 50 μL of the diluted antibody is dispensed into the plate, and the compositions in the plate are mixed for 1 min on a horizontal plate shaker. The plate is characterized by a first row not containing topiramate or anti-topiramate antibody, wherein the first row is used as a negative control. A second row not containing topiramate is used as the positive control. The plate is incubated for 60 min, and washed three times with 250 μL of PBS at pH 7.4 with 0.05% tween. About 125 μL of a diluted second antibody conjugate such as antigens (16), (19), or (20), in PBS at pH 7.4 is added to each well of the plate. Titer is determined experimentally by the plate being incubated for 60 min at 37° C. and washed 3 times with 250 μL PBS, pH 7.4 with 0.05% tween. Subsequently, about 125 μL of ABTS substrate is added to each well of the plate and incubated for 20 min. The avidity of the anti-topiramate antibodies prepared with immunogen (18) for topiramate analogs is determined by a binding inhibition study performed with an experimental protocol substantially similar as in Example 24.

[4] = dose escalation add-on studies, morning serum
[5] = Antigen 16, Topiramate 2 μg/ml, Rabbit No. 5490
[6] = Antigen 16, Topiramate 2 μg/ml, Rabbit No. 5495
[7] = Antigen 16, Topiramate 4 μg/ml, Rabbit No. 5490
[8] = Antigen 16, Topiramate 4 μg/ml, Rabbit No. 5495
[9] = Antigen 16, Topiramate 8 μg/ml, Rabbit No. 5490
[10] = Antigen 16, Topiramate 8 μg/ml, Rabbit No. 5495
[11] = Antigen 16, Topiramate 16 μg/ml, Rabbit No. 5490
[12] = Antigen 16, Topiramate 16 μg/ml, Rabbit No. 5495
[13] = Antigen 16, Topiramate 32 μg/ml, Rabbit No. 5490
[14] = Antigen 16, Topiramate 32 μg/ml, Rabbit No. 5495
[15] = Antigen 19, Topiramate 2 μg/ml, Rabbit No. 5490
[16] = Antigen 19, Topiramate 2 μg/ml, Rabbit No. 5495
[17] = Antigen 19, Topiramate 4 μg/ml, Rabbit No. 5490
[18] = Antigen 19, Topiramate 4 μg/ml, Rabbit No. 5495
[19] = Antigen 19, Topiramate 8 μg/ml, Rabbit No. 5490
[20] = Antigen 19, Topiramate 8 μg/ml, Rabbit No. 5495
[21] = Antigen 19, Topiramate 16 μg/ml, Rabbit No. 5490
[22] = Antigen 19, Topiramate 16 μg/ml, Rabbit No. 5495
[23] = Antigen 19, Topiramate 32 μg/ml, Rabbit No. 5490
[24] = Antigen 19, Topiramate 32 μg/ml, Rabbit No. 5495
[25] = Antigen 20, Topiramate 2 μg/ml, Rabbit No. 5490
[26] = Antigen 20, Topiramate 2 μg/ml, Rabbit No. 5495
[27] = Antigen 20, Topiramate 4 μg/ml, Rabbit No. 5490
[28] = Antigen 20, Topiramate 4 μg/ml, Rabbit No. 5495
[29] = Antigen 20, Topiramate 8 μg/ml, Rabbit No. 5490
[30] = Antigen 20, Topiramate 8 μg/ml, Rabbit No. 5495
[31] = Antigen 20, Topiramate 16 μg/ml, Rabbit No. 5490
[32] = Antigen 20, Topiramate 16 μg/ml, Rabbit No. 5495
[33] = Antigen 20, Topiramate 32 μg/ml, Rabbit No. 5490
[34] = Antigen 20, Topiramate 32 μg/ml, Rabbit No. 5495

For `CC1(C)O[C@@H]2[C@@H](CO[C@@]3(COS(N)(=O)=O)OC(C)(C)O[C@@H]23)O1` [Topiramate, 2,3:4,5-di-O-isopropylidene-beta-D-fructopyranose sulfamate], the “serum concentration with reduction in seizure control” value [1, 4] is given as “greater than 75 μmol/L”, the “serum concentration with significant increase in side effects” value [1, 4] is given as > 60 µM and the systemic topiramate concentrations ([1]; patients receiving considerably higher doses, up to 2000 mg) is given as ≤ 80 µmol/L. The “Rate (Delta Absorbance)” value ([2]; Topiramate 8 μg/ml sample) was 60, the “Rate (Delta Absorbance)” value ([2]; Topiramate 16 μg/ml sample) was 16 and the “Rate (Delta Absorbance)” value ([2]; Topiramate 32 μg/ml sample) was 4. For the same molecule, the Abs [3, 5] was 0.25, the B/Bo [3, 5] was 0.35 and the Abs [3, 6] was 0.25. It also gave a B/Bo [3, 6] of 0.35, an Abs [3, 7] of 0.20 and a B/Bo [3, 7] of 0.28. The Abs [3, 8] was 0.28, the B/Bo [3, 8] was 0.39 and the Abs [3, 9] was 0.15. It also gave a B/Bo [3, 9] of 0.21, an Abs [3, 10] of 0.15 and a B/Bo [3, 10] of 0.21. It also gave an Abs [3, 11] of 0.12, a B/Bo [3, 11] of 0.17 and an Abs [3, 12] of 0.12. For the same molecule, the B/Bo [3, 12] was 0.17, the Abs [3, 13] was 0.10 and the B/Bo [3, 13] was 0.14. The Abs [3, 14] was 0.10, the B/Bo [3, 14] was 0.14 and the Abs [3, 15] was 0.10. The B/Bo [3, 15] was 0.18, the Abs [3, 16] was 0.13 and the B/Bo [3, 16] was 0.20. For the same molecule, the Abs [3, 17] was 0.06, the B/Bo [3, 17] was 0.10 and the Abs [3, 18] was 0.08. For the same molecule, the B/Bo [3, 18] was 0.12, the Abs [3, 19] was 0.04 and the B/Bo [3, 19] was 0.07. It also gave an Abs [3, 20] of 0.05, a B/Bo [3, 20] of 0.08 and an Abs [3, 21] of 0.03. For the same molecule, the B/Bo [3, 21] was 0.06, the Abs [3, 22] was 0.04 and the B/Bo [3, 22] was 0.06. The Abs [3, 23] was 0.02, the B/Bo [3, 23] was 0.04 and the Abs [3, 24] was 0.02. The B/Bo [3, 24] was 0.03, the Abs [3, 25] was 0.25 and the B/Bo [3, 25] was 0.63. It also gave an Abs [3, 26] of 0.18, a B/Bo [3, 26] of 0.53 and an Abs [3, 27] of 0.24. The B/Bo [3, 27] was 0.60, the Abs [3, 28] was 0.17 and the B/Bo [3, 28] was 0.50. For the same molecule, the Abs [3, 29] was 0.22, the B/Bo [3, 29] was 0.55 and the Abs [3, 30] was 0.16. For the same molecule, the B/Bo [3, 30] was 0.47, the Abs [3, 31] was 0.21 and the B/Bo [3, 31] was 0.53. The Abs [3, 32] was 0.14, the B/Bo [3, 32] was 0.41 and the Abs [3, 33] was 0.20. The B/Bo [3, 33] was 0.50, the Abs [3, 34] was 0.11 and the B/Bo [3, 34] was 0.32.
